Holding throughout (assay): relative viability (nuclei count vs DMSO), 5 days (fraction); higher = more cells survive
Compound in the experiment “Bicalutamide + OSI-027”: CC(O)(CS(=O)(=O)c1ccc(F)cc1)C(=O)Nc1ccc(C#N)c(C(F)(F)F)c1 [Bicalutamide] + COc1cccc2cc(-c3nc([C@H]4CC[C@H](C(=O)O)CC4)n4ncnc(N)c34)[nH]c12 [OSI-027] (partner 0.5 µM)
An outline of the steps:
(§1)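 One day after seeding in 1536-well plates, lung cancer cell lines were dosed by pin tool. Dosing was either single-drug or a fixed anchor-drug dose plus five library-drug doses (not always all listed) in √10 steps. After 5 days, nuclei were stained in one fix-and-stain step and counted on 4× images, and relative viability is the nuclei count of treated wells over that of vehicle wells, given as the median of duplicate plates.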

Compound in experiment [1]: C(C(=O)C(=O)O)Br [Bromopyruvate] + Nc1nc2[nH]cc(CCc3ccc(C(=O)N[C@@H](CCC(=O)O)C(=O)O)cc3)c2c(=O)[nH]1 [Pemetrexed] (partner 0.2 µM)
An outline of the steps: as §1

Compound in experiment [2]: C(C(=O)C(=O)O)Br [Bromopyruvate] + C[C@@H](Oc1cc(-c2cnn(C3CCNCC3)c2)cnc1N)c1c(Cl)ccc(F)c1Cl [Crizotinib] (partner 1 µM)
An outline of the steps: as §1

Compound in experiment [3]: C(C(=O)C(=O)O)Br [Bromopyruvate] + CCNC(=O)c1noc(-c2cc(C(C)C)c(O)cc2O)c1-c1ccc(CN2CCOCC2)cc1 [Luminespib] (partner 0.01 µM)
In a few lines:
as §1

Regarding EKVX, the relative viability with Bicalutamide + OSI-027 (first compound 0.08 µM) came out at 0.747; with Bicalutamide + OSI-027 (first compound 0.253 µM), 0.631; with Bicalutamide + OSI-027 (first compound 0.8 µM), 0.739; with Bicalutamide + OSI-027 (first compound 2.53 µM), 0.718; in experiment [1] (first compound 1 µM) it was 0.396; in experiment [1] (first compound 3.162 µM), 0.424. The relative viability in experiment [1] (first compound 10 µM) stood at 0.376; in experiment [1] (first compound 31.62 µM), 0.372; in experiment [1] (first compound 100 µM), 0.438; in experiment [2] (first compound 1 µM), 0.917; in experiment [2] (first compound 3.162 µM), 1.1; in experiment [2] (first compound 10 µM), 1.08. In addition, the relative viability in experiment [2] (first compound 31.62 µM) stood at 1.03; in experiment [2] (first compound 100 µM), 0.996; in experiment [3] (first compound 1 µM) it was 0.824; in experiment [3] (first compound 3.162 µM) it was 0.883; in experiment [3] (first compound 10 µM) it was 1.22; in experiment [3] (first compound 31.62 µM), 0.811. Besides, the relative viability in experiment [3] (first compound 100 µM) came to 1.02.

Regarding EMC-BAC-2, the relative viability with Bicalutamide + OSI-027 (first compound 0.08 µM) was determined as 0.404; in the experiment with Bicalutamide + OSI-027 (first compound 0.253 µM), 0.374; with Bicalutamide + OSI-027 (first compound 0.8 µM), 0.364; with Bicalutamide + OSI-027 (first compound 2.53 µM) it was 0.246; in experiment [1] (first compound 1 µM) it was 0.422; in experiment [1] (first compound 3.162 µM), 0.45. Further, the relative viability in experiment [1] (first compound 10 µM) stood at 0.451; in experiment [1] (first compound 31.62 µM), 0.479; in experiment [1] (first compound 100 µM), 0.453; in experiment [2] (first compound 1 µM), 0.611; in experiment [2] (first compound 3.162 µM) it was 0.723; in experiment [2] (first compound 10 µM), 0.798. In addition, the relative viability in experiment [2] (first compound 31.62 µM) was found to be 0.788; in experiment [2] (first compound 100 µM), 0.756; in experiment [3] (first compound 1 µM) it was 0.993; in experiment [3] (first compound 3.162 µM), 1.24; in experiment [3] (first compound 10 µM), 1.29; in experiment [3] (first compound 31.62 µM), 1.22. For the same cell line, the relative viability in experiment [3] (first compound 100 µM) amounted to 1.22.

For EPLC-272H, the relative viability turned out to be 0.314 in the experiment with Bicalutamide + OSI-027 (first compound 0.08 µM); 0.34 with Bicalutamide + OSI-027 (first compound 0.253 µM); 0.325 with Bicalutamide + OSI-027 (first compound 0.8 µM); 0.243 with Bicalutamide + OSI-027 (first compound 2.53 µM); 0.367 in experiment [1] (first compound 1 µM); 0.259 in experiment [1] (first compound 3.162 µM). The relative viability worked out at 0.334 in experiment [1] (first compound 10 µM); 0.251 in experiment [1] (first compound 31.62 µM); 0.432 in experiment [1] (first compound 100 µM); 0.773 in experiment [2] (first compound 1 µM); 0.996 in experiment [2] (first compound 3.162 µM); 0.999 in experiment [2] (first compound 10 µM). Besides, the relative viability in experiment [2] (first compound 31.62 µM) is 0.92; in experiment [2] (first compound 100 µM) it was 0.911; in experiment [3] (first compound 1 µM) it was 0.28; in experiment [3] (first compound 3.162 µM), 0.183; in experiment [3] (first compound 10 µM), 0.249; in experiment [3] (first compound 31.62 µM) it was 0.2. Also, in experiment [3] (first compound 100 µM), the relative viability was determined as 0.211.

Consider H3255, for which the relative viability with Bicalutamide + OSI-027 (first compound 0.08 µM) turned out to be 0.525; with Bicalutamide + OSI-027 (first compound 0.253 µM), 0.591; with Bicalutamide + OSI-027 (first compound 2.53 µM) it was 0.498; in experiment [1] (first compound 1 µM), 0.558; in experiment [1] (first compound 3.162 µM), 0.535; in experiment [1] (first compound 10 µM), 0.573. In addition, the relative viability in experiment [1] (first compound 31.62 µM) is 0.536; in experiment [1] (first compound 100 µM) it was 0.597; in experiment [2] (first compound 1 µM) it was 0.929; in experiment [2] (first compound 3.162 µM), 0.987; in experiment [2] (first compound 10 µM), 0.915; in experiment [2] (first compound 31.62 µM) it was 0.803. For the same cell line, the relative viability in experiment [2] (first compound 100 µM) was determined as 0.973; in experiment [3] (first compound 1 µM), 0.859; in experiment [3] (first compound 3.162 µM), 1; in experiment [3] (first compound 10 µM), 1.05; in experiment [3] (first compound 31.62 µM) it was 0.896; in experiment [3] (first compound 100 µM), 1.04.
